Assay [1] in a line: DRUGMATRIX: Calcium Channel Type L, Dihydropyridine radioligand binding (ligand: [3H] Nitrendipine). The class given is cell membranes, Rattus norvegicus, Wistar, Cerebral cortex, Membrane. The note with it: Not Active = under 50% inhibition at 10 µM.
The next assay concerns the target Carbonic anhydrase 2 (Homo sapiens, UniProt P00918). Briefly: DRUGMATRIX: Carbonic Anhydrase II enzyme inhibition (substrate: 4-Nitrophenyl acetate (4-NPA)). It counts as tissue-based, Erythrocyte. Particulars: erythrocyte; Not Active = under 50% inhibition at 10 µM.
Assay [2] has as its target T1, Neuropeptide Y receptor type 2 (Homo sapiens, UniProt P49146). Also: in other assays of this panel Not Active means under 50% inhibition at 10 µM.
T1 sequence (P49146 whole entry): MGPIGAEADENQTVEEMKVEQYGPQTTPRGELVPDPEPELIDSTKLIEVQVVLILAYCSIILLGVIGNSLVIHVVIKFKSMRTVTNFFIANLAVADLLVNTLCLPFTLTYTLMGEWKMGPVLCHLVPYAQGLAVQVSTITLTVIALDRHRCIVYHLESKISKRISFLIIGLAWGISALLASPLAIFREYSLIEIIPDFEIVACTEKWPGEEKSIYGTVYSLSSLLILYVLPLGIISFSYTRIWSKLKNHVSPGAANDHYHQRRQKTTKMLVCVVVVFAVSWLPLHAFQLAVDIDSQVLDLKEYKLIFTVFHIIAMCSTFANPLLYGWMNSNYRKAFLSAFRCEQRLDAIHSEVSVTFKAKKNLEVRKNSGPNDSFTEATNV
It counts as cell membranes, Membrane. Particulars: kan-ts.

Assay [3] in a line: DRUGMATRIX: Phosphodiesterase PDE4 enzyme inhibition (substrate: [3H]cAMP + cAMP). The note with it: u-937; Not Active = under 50% inhibition at 10 µM.
In another assay the target is T2, Cathepsin G (Homo sapiens, UniProt P08311).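 Also: inhibition of Cathepsin G enzyme activity, tested on an AMC-conjugated peptide substrate; in other assays of this panel Not Active means under 50% inhibition at 10 µM.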
T2 sequence (P08311 whole entry): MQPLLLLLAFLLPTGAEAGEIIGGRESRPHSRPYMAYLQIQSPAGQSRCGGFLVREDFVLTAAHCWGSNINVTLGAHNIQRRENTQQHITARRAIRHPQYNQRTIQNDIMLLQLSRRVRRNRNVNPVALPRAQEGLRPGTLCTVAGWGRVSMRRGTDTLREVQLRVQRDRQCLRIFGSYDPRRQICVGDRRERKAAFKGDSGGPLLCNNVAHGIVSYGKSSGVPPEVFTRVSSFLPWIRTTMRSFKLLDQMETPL
Briefly: biochemical. It counts as tissue-based, Neutrophil.

The target of assay [4] is Mitogen-activated protein kinase 3 (Homo sapiens, UniProt P27361). The assay is described as follows: DRUGMATRIX: Protein Serine/Threonine Kinase, ERK1 enzyme inhibition (substrate: Myelin Basic Protein). Set-up: species or system Escherichia coli. The note with it: Not Active = under 50% inhibition at 10 µM.
Chain of Mitogen-activated protein kinase 3 (P27361 whole entry): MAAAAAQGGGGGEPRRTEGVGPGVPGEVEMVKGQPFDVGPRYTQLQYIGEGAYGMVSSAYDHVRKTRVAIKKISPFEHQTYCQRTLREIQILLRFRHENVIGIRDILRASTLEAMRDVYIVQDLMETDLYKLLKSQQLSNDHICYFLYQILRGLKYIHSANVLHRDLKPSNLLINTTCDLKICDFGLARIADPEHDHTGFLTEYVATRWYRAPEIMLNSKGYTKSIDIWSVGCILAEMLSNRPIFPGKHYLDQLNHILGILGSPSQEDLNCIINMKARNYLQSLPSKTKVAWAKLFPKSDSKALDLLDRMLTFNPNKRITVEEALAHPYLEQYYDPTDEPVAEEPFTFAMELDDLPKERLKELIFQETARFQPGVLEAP
The target in assay [5] is Receptor tyrosine-protein kinase erbB-2 (Homo sapiens, UniProt P04626). It counts as cell-based. The note with it: insect cells.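 Also: inhibition of HER2 kinase enzyme activity, measured with Poly(Glu:Tyr) as the phosphorylation substrate; in other assays of this panel Not Active means under 50% inhibition at 10 µM.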
Chain of Receptor tyrosine-protein kinase erbB-2 (P04626 whole entry): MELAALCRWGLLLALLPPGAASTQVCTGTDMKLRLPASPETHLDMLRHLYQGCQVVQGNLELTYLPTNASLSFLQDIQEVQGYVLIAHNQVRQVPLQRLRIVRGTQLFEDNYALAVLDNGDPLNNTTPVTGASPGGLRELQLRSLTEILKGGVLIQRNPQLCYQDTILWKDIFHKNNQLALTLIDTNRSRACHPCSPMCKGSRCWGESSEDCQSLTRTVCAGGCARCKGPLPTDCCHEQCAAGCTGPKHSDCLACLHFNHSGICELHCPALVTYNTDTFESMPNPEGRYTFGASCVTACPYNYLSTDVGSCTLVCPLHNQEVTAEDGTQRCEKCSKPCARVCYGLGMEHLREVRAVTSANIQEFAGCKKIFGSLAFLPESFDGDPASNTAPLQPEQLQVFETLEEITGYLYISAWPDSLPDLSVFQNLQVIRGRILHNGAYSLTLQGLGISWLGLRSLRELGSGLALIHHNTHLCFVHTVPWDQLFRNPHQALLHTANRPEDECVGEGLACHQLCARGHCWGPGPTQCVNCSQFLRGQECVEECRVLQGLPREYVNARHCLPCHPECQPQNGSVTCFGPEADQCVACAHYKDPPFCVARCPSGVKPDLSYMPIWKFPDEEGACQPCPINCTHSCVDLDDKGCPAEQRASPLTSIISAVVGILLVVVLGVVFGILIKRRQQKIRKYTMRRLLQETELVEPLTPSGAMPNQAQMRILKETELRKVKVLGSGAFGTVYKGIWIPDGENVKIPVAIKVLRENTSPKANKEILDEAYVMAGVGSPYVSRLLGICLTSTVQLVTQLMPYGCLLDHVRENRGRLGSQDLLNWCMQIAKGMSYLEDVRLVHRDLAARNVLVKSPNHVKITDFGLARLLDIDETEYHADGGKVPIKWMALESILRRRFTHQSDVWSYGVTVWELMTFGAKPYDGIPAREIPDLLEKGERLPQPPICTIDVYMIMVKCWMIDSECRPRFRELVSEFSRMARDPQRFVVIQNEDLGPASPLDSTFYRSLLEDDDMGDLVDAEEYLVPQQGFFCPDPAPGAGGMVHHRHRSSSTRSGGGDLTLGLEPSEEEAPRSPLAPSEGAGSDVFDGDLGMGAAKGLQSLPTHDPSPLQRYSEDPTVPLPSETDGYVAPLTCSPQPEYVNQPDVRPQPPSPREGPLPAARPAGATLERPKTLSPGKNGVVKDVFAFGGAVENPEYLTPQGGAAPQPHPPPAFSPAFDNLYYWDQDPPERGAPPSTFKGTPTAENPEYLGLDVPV

Each structure is given as a SMILES string.

Usually IC50 stands for the concentration needed to halve the response being measured. `Nc1nc(N)c2nc(-c3ccccc3)c(N)nc2n1`: the IC50 entry in assay [1] was “Not Active”; at Carbonic anhydrase 2 it was “Not Active”; in assay [2], “Not Active”; in assay [3], “Not Active”; at Cathepsin G (read-out: IC50), 7.41 µM; in assay [4], “Not Active”. Further, the IC50 result in assay [5] is on record as “Not Active”. In addition, the Ki result in assay [1] and in assay [3] was “Not Active” in each case.

In the case of `CC1=C(/C=C/C(C)=C/C=C/C(C)=C/C(=O)O)C(C)(C)CCC1` [TRETINOIN], the 50% inhibitory concentration (IC50) result (in assay [1]; against Carbonic anhydrase 2; in assay [2]; in assay [3]; against Cathepsin G (neutrophil); in assay [4]) was “Not Active” in each case. Besides, the IC50 result in assay [5] is “Not Active”. Also, the Ki result in assay [1] and in assay [3] was “Not Active” throughout.

Turning to `CC[C@@]1(O)C(=O)OCc2c1cc1n(c2=O)Cc2cc3c(CN(C)C)c(O)ccc3nc2-1` [TOPOTECAN], the IC50 result (in assay [1]; on Carbonic anhydrase 2; in assay [2]; in assay [3]; against Cathepsin G (neutrophil); in assay [4]) was “Not Active” throughout. Further, the IC50 entry in assay [5] is reported as “Not Active”. Besides, the Ki entry in assay [1] and in assay [3] was “Not Active” in each case.

Take `Cc1ccc(Cl)c(Nc2ccccc2C(=O)O)c1Cl` [MECLOFENAMIC ACID]: the IC50 result (in assay [1]; against Carbonic anhydrase 2; in assay [2]; in assay [3]; on Cathepsin G (neutrophil); in assay [4]) was “Not Active” in each case. The IC50 result in assay [5] is “Not Active”. Moreover, the Ki result in assay [1] and in assay [3] was “Not Active” in each case.

`CCOc1cc(N)c(Cl)cc1C(=O)NCC1CN(Cc2ccc(F)cc2)CCO1` (stereo not given) [MOSAPRIDE]: the IC50 result (in assay [1]; against Carbonic anhydrase 2; in assay [2]; in assay [3]; at Cathepsin G (neutrophil); in assay [4]) was “Not Active” each time. Further, the 50% inhibitory concentration (IC50) result in assay [5] was “Not Active”. In addition, the Ki result in assay [1] and in assay [3] was “Not Active” throughout.

In the case of `CN1C[C@H](CNC(=O)OCc2ccccc2)C[C@@H]2c3cccc4c3c(cn4C)C[C@H]21` [METERGOLINE], the IC50 entry (in assay [1]; at Carbonic anhydrase 2; in assay [2]; in assay [3]; against Cathepsin G (neutrophil); in assay [4]) was “Not Active” each time. Moreover, in assay [5], the IC50 entry is reported as “Not Active”. In addition, the Ki entry in assay [1] and in assay [3] was “Not Active” throughout.

As for `C1CCN2C[C@@H]3C[C@@H](CN4CCCC[C@@H]34)[C@H]2C1` [SPARTEINE], the IC50 result (in assay [1]; against Carbonic anhydrase 2; in assay [2]; in assay [3]; against Cathepsin G (neutrophil); in assay [4]) was “Not Active” throughout. Besides, the IC50 result in assay [5] is “Not Active”. The Ki entry in assay [1] and in assay [3] was “Not Active” each time.

On to `CO[C@@H]1[C@@H](OC)[C@H](C)[C@@](O)(CC(=O)O)O[C@H]1[C@H](C)[C@H]1O[C@@]2(CC[C@@](C)([C@H]3CC[C@@](C)([C@@H]4O[C@@H]([C@H]5O[C@](C)(O)[C@H](C)C[C@@H]5C)C[C@@H]4O[C@@H]4C[C@H](OC)[C@@H](OC)[C@H](C)O4)O3)O2)C[C@H](O)[C@H]1C.N` [MADURAMICIN], for which the IC50 result (in assay [1]; against Carbonic anhydrase 2; in assay [2]; in assay [3]; against Cathepsin G (neutrophil); in assay [4]) was “Not Active” in each case. Moreover, the IC50 entry in assay [5] is “Not Active”. Moreover, the Ki result in assay [1] and in assay [3] was “Not Active” throughout.

Take `CN1C(=O)OC(C)(C)C1=O` [TRIMETHADIONE]: the IC50 result (in assay [1]; against Carbonic anhydrase 2; in assay [2]; in assay [3]; at Cathepsin G (neutrophil); in assay [4]) was “Not Active” each time. Moreover, the IC50 entry in assay [5] was “Not Active”. Also, the Ki entry in assay [1] and in assay [3] was “Not Active” throughout.

As to `CC1(C)[C@H](C(=O)O)N2C(=O)C[C@H]2S1(=O)=O` [SULBACTAM], the IC50 result (in assay [1]; against Carbonic anhydrase 2; in assay [2]; in assay [3]; at Cathepsin G (neutrophil); in assay [4]) was “Not Active” in each case. In assay [5], the IC50 result is given as “Not Active”. The Ki entry in assay [1] and in assay [3] was “Not Active” throughout.

(Values after ChEMBL document CHEMBL1909046, “DrugMatrix in vitro pharmacology data”.)
